Measurements as given in patent US20230263757A1, “DISINFECTING WIPE KIT FOR CENTRAL VENOUS ACCESS DEVICES” (SterileCare Inc., priority 2022, published 2023).
Structures can show the parent of a compound that is named as a salt. Where two headings read alike, the source gives them in different places.

Assays:
[1] = tested on: S. epidermidis SK9; experiment: MIC, micro broth dilution; assay type: cell-based, Staphylococcus epidermidis; settings: alone
Description: (§1) An assay was made using a minimum inhibitory concentration (MIC) and minimum bactericidal concentration (MBC) and minimum fungicidal concentration (MFC) determination. The MIC was determined by the micro broth dilution method in 96-well plates. Serial two-fold dilutions of tetrasodium EDTA (from 2% to 0.015%), ethanol (from 50% to 0.1%) and chlorhexidine HCl (from 100 μg/mL to 0.025 μg/mL) were prepared in MH broth with a final volume of 90 μL per well. A 10 μL containing 1×10^5 bacterial cells or 2×10^3 fungal cells were added to each well. The inoculated plates were covered with a lid, sealed with Parafilm, and incubated for 24 h at 37° C. with slight rocking on a tilting platform shaker. After incubation, the optical density at 600 nm (OD 600) of the cultures in each well was measured using an xMark™ Microplate Absorbance Spectrophotometer (Bio-Rad). […] MBCs and MFCs were determined by transferring 100 μL from each well with no apparent growth onto appropriate agar plates, followed by incubation for 24 h at 37° C.

[2] = tested on: Candida albicans SK4b; experiment: MIC, micro broth dilution; assay type: cell-based; settings: alone
Description: as §1

[3] = tested on: Escherichia coli ON29; experiment: MIC, micro broth dilution; assay type: cell-based; settings: alone
Description: as §1

[4] = tested on: Proteus mirabilis ON153; experiment: MIC, micro broth dilution; assay type: cell-based; settings: alone
Description: as §1

[5] = tested on: Pseudomonas aeruginosa SK1; experiment: MIC, micro broth dilution; assay type: cell-based; settings: alone
Description: as §1

[6] = tested on: Serratia marcescens SK2; experiment: MIC, micro broth dilution; assay type: cell-based; settings: alone
Description: as §1

[7] = tested on: Staphylococcus aureus ON89; experiment: MIC, micro broth dilution; assay type: cell-based; settings: alone
Description: as §1

[8] = tested on: Staphylococcus epidermidis ON170; experiment: MIC, micro broth dilution; assay type: cell-based; settings: alone
Description: as §1

[9] = tested on: Stenotrophomonas maltophilia ON17; experiment: MIC, micro broth dilution; assay type: cell-based; settings: alone
Description: as §1

[10] = tested on: MRSA ON184; experiment: MIC, micro broth dilution; assay type: cell-based, S. aureus; settings: alone
Description: as §1

[11] = tested on: MRSA ON184; experiment: Checkerboard titration, FICI; assay type: cell-based, S. aureus; settings: for concentration in combination: EDTA + ethanol
Description: (§2) A fourth composition and solution included tetrasodium EDTA with ethanol or chlorhexidine HCl. This fourth composition and solution were created using checkerboard titration methods using micro broth dilution in 96-well microtiter plates. The concentrations of antimicrobials used were based on previously determined MIC values. Briefly, 200 μL, of two-fold dilutions of tetrasodium EDTA and ethanol or chlorhexidine HCl were prepared in MH or MH II broth with standardized cell suspension. […] Microtiter plates were incubated at 37° C. for 24 h, and the results were analyzed. Each test was performed in duplicate and included a growth control without adding any antimicrobials.

[12] = tested on: E. coli SK2; experiment: Checkerboard titration, FICI; assay type: cell-based, Escherichia coli; settings: for concentration in combination: EDTA + ethanol
Description: as §2

[13] = tested on: C. albicans ON47; experiment: Checkerboard titration, FICI; assay type: cell-based, Candida albicans; settings: for concentration in combination: EDTA + ethanol
Description: as §2

[14] = tested on: E. coli SK2; experiment: MBC/MFC determination; assay type: cell-based, Escherichia coli; settings: alone
Description: as §1

[15] = tested on: C. albicans ON47; experiment: MBC/MFC determination; assay type: cell-based, Candida albicans; settings: alone
Description: as §1

[16] = tested on: E. coli SK2; experiment: Checkerboard, FMCI; assay type: cell-based, Escherichia coli; settings: for microbicidal concentration in combination: EDTA + ethanol
Description: as §1, §2

[17] = tested on: C. albicans ON47; experiment: Checkerboard, FMCI; assay type: cell-based, Candida albicans; settings: for microbicidal concentration in combination: EDTA + ethanol
Description: as §1, §2

[18] = tested on: MRSA ON184; experiment: MBEC assay, 48-h biofilm, 24 h exposure; assay type: cell-based, S. aureus
Description: A biofilm cultivation cell composition was provided. This fifth composition was created using an MBEC Assay® biofilm inoculator, consisting of a polystyrene lid with 96 downward-protruding pegs and a corresponding base used to grow biofilms. A standardized inoculum was diluted in an appropriate biofilm growth medium to achieve a viable cell count of 1.5×10^6 CFU/mL of bacterial cells or 5×10^5 CFU/mL of fungal cells. Then, 150 μL of this inoculum was transferred into each appropriate well, and the peg lids were inserted into the microtiter plates. The plates were sealed with Parafilm and were incubated at optimum temperature for 48 h with slight rocking for bacteria and shaking at 200 rpm for fungal strains. After incubation, the peg lid was removed from the base and rinsed twice with sterile phosphate-buffered saline (PBS) for 2 min to remove loosely attached non-sessile cells. Before the antimicrobial challenge, the pegs in column 1 (n=8) were considered the biofilm growth control; these pegs were removed from the lids, placed into 200 μL of recovery medium, and analyzed for starting biofilm cell numbers as described below. The rinsed pegs were placed into new 96-well plates containing two-fold dilutions of antimicrobials such as tetrasodium EDTA (4%-0.0125%), ethanol (100%-0.2%), and chlorhexidine HCl (100 μg/mL-0.4 μg/mL) in 200 μL of suitable biofilm growth medium per well and incubated at optimum temperature for 24 h. After the antimicrobial challenge, the pegs were rinsed twice with sterile PBS for 2 min and placed into a new 96-well plate containing 200 μL of recovery medium. The recovery plates were sealed with Parafilm, and biofilm cells were dislodged from the pegs by sonication for 30 min with a Branson 3510 bath sonicator. The biofilm cells in the recovery medium were serially diluted, and a drop dilution assay was performed to enumerate the viable cells. MBEC values were determined as the minimum concentration of antimicrobials that yielded a viable cell count at or lower than the 125 CFU/mL detection limit.

[19] = tested on: Escherichia coli SK2; experiment: FBEC index, checkerboard on biofilms; assay type: cell-based; settings: for biofilm eradication concentration in combination (FBEC): EDTA + ethanol
Description: In step (4), microtiter plates are incubated at 37° C. for 24 h. then (6), after incubation, the bacterial and fungal cells were dislodged from the pegs into the recovery medium described above.
Three 10-μL aliquots, for a total of 30 μL from each well of recovery medium, were spotted on MH agar plates and incubated for 24 h at 37° C. […] The FBEC determination is a modification of the FICI.

Compound	MBC/MFC [14]	MBC/MFC [15]	MBEC [18]	MIC [1] [% w/v]	MIC [2] [% w/v]	MIC [3] [% w/v]	MIC [4] [% w/v]	MIC [5] [% w/v]	MIC [6] [% w/v]	MIC [7] [% w/v]	MIC [8] [% w/v]	MIC [9] [% w/v]	MIC [10] [% w/v]	concentration in combination [11] [% w/v]	concentration in combination [12] [% w/v]	concentration in combination [13] [% w/v]	microbicidal concentration in combination [16] [% w/v]	microbicidal concentration in combination [17] [% w/v]	biofilm eradication concentration in combination (FBEC) [19] [% w/v]	further results
[H]/N=C(\N/C(=N/[H])NCCCCCCNC(=N)NC(=N)Nc1ccc(Cl)cc1)Nc1ccc(Cl)cc1 [Chlorhexidine HCl, 1,6-bis(4′-chlorophenylbiguanide) hexane]	0.8 µg/mL	3.125 µg/mL	50 µg/mL																	MIC ([1]; Staphylococcus epidermidis, read-out: MIC): 0.1 µg/mL; MIC ([2]; read-out: MIC): 1.6 µg/mL; MIC ([3]; read-out: MIC): 0.4 µg/mL; MIC ([4]; read-out: MIC): 50 µg/mL; MIC ([5]; read-out: MIC): 1.6 µg/mL; MIC ([6]; read-out: MIC): 12.5 µg/mL; MIC ([7]; read-out: MIC): 0.1 µg/mL; MIC ([8]; read-out: MIC): 0.1 µg/mL; MIC ([9]; read-out: MIC): 0.8 µg/mL; MIC ([10]; Staphylococcus aureus, read-out: MIC): 0.2 µg/mL; Chlorhexidine HCl concentration in combination ([11]; EDTA + chlorhexidine HCl): 0.2 µg/mL; Chlorhexidine HCl concentration in combination ([12]; EDTA + chlorhexidine HCl): 0.1 µg/mL; Chlorhexidine HCl concentration in combination ([13]; EDTA + chlorhexidine HCl): 0.8 µg/mL; Chlorhexidine HCl microbicidal concentration in combination ([16]; EDTA + chlorhexidine HCl): 0.2 µg/mL; Chlorhexidine HCl microbicidal concentration in combination ([17]; EDTA + chlorhexidine HCl): 1.6 µg/mL; Chlorhexidine HCl biofilm eradication concentration in combination (FBEC) ([19]; EDTA + chlorhexidine HCl): 3.125 µg/mL
O=C([O-])CN(CCN(CC(=O)[O-])CC(=O)[O-])CC(=O)[O-].[Na+].[Na+].[Na+].[Na+] [EDTA, tetrasodium EDTA]	0.5 % w/v	1 % w/v	2 % w/v	0.063	1	0.5	1	0.25	2	0.063	0.063	0.063	0.063	0.015	0.015	0.25	0.25	0.25	0.125	EDTA concentration in combination ([11]; EDTA + chlorhexidine HCl): 0.008 % w/v; EDTA concentration in combination ([12]; EDTA + chlorhexidine HCl): 0.008 % w/v; EDTA concentration in combination ([13]; EDTA + chlorhexidine HCl): 0.125 % w/v; EDTA microbicidal concentration in combination ([16]; EDTA + chlorhexidine HCl): 0.015 % w/v; EDTA microbicidal concentration in combination ([17]; EDTA + chlorhexidine HCl): 0.031 % w/v; EDTA biofilm eradication concentration in combination (FBEC) ([19]; EDTA + chlorhexidine HCl): 0.031 % w/v
CCO [Ethanol, ethanol]	25 % w/v	6.25 % w/v	12.5 % w/v	6.25	6.25	12.5	6.25	3.125	6.25	6.25	3.125	6.25	6.25	0.4	6.25	0.4	6.25	3.125	1.6	
